Reference: PubChem BioAssay (NCI)
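1) Cells in 96-well plates. 2) Compound, 48 h, 5 concentrations. 3) Linear interpolation between surrounding doses. 4) Unreached endpoint = highest concentration. The concentration for full growth arrest is given as TGI.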

How the values were obtained:
Assay in all cases: NCI tumour cell line growth inhibition, 48 h
HT29 colon = tested on: HT29 colon
SK-MEL-5 melanoma = tested on: SK-MEL-5 melanoma
MALME-3M melanoma = tested on: MALME-3M melanoma
SW-620 colon = tested on: SW-620 colon
HOP-92 NSCLC = tested on: HOP-92 NSCLC
MCF7 breast = tested on: MCF7 breast
SF-295 CNS = tested on: SF-295 CNS
EKVX NSCLC = tested on: EKVX NSCLC
DU-145 prostate = tested on: DU-145 prostate
NCI-H522 lung = tested on: NCI-H522 lung
UO-31 renal = tested on: UO-31 renal
SF-268 CNS = tested on: SF-268 CNS
HL-60(TB) leukemia = tested on: HL-60(TB) leukemia
UACC-257 melanoma = tested on: UACC-257 melanoma
OVCAR-3 ovarian = tested on: OVCAR-3 ovarian
NCI-H226 lung = tested on: NCI-H226 lung
786-0 renal = tested on: 786-0 renal
IGROV1 ovarian = tested on: IGROV1 ovarian
NCI-H460 lung = tested on: NCI-H460 lung
T-47D breast = tested on: T-47D breast
UACC-62 melanoma = tested on: UACC-62 melanoma
CAKI-1 renal = tested on: CAKI-1 renal
U251 CNS = tested on: U251 CNS
CCRF-CEM leukemia = tested on: CCRF-CEM leukemia
PC-3 prostate = tested on: PC-3 prostate
K-562 leukemia = tested on: K-562 leukemia
RPMI-8226 leukemia = tested on: RPMI-8226 leukemia
HCT-116 colon = tested on: HCT-116 colon
HOP-62 NSCLC = tested on: HOP-62 NSCLC
NCI/ADR-RES ovarian = tested on: NCI/ADR-RES ovarian
COLO 205 colon = tested on: COLO 205 colon
SNB-19 CNS = tested on: SNB-19 CNS
OVCAR-5 ovarian = tested on: OVCAR-5 ovarian
SR leukemia = tested on: SR leukemia
MOLT-4 leukemia = tested on: MOLT-4 leukemia
SN12C renal = tested on: SN12C renal
MDA-MB-231 breast = tested on: MDA-MB-231 breast
KM12 colon = tested on: KM12 colon
SF-539 CNS = tested on: SF-539 CNS
MDA-MB-435 = tested on: MDA-MB-435
HCT-15 colon = tested on: HCT-15 colon
TK-10 renal = tested on: TK-10 renal
LOX IMVI melanoma = tested on: LOX IMVI melanoma
RXF 393 renal = tested on: RXF 393 renal
NCI-H23 lung = tested on: NCI-H23 lung
SNB-75 CNS = tested on: SNB-75 CNS
SK-MEL-28 melanoma = tested on: SK-MEL-28 melanoma
ACHN renal = tested on: ACHN renal
HS 578T breast = tested on: HS 578T breast
M14 melanoma = tested on: M14 melanoma
SK-MEL-2 melanoma = tested on: SK-MEL-2 melanoma
OVCAR-4 ovarian = tested on: OVCAR-4 ovarian
A549 NSCLC = tested on: A549 NSCLC
OVCAR-8 ovarian = tested on: OVCAR-8 ovarian
MDA-N = tested on: MDA-N
BT-549 breast = tested on: BT-549 breast

Q: With CN(Cc1cnc2nc(N)nc(N)c2n1)c1ccc(C(=O)NC(CCC(=O)NC(P(=O)(O)O)P(=O)(O)O)C(=O)O)cc1 (stereo not drawn) as the compound, how does the TGI (HT29 colon) read?
A: > 100 µM

Q: And the TGI (SK-MEL-5 melanoma)?
A: > 100 µM

Q: What about the TGI (MALME-3M melanoma) of the same compound?
A: > 100 µM

Q: What about the TGI (SW-620 colon) of the same compound?
A: 28.3 µM

Q: And the TGI (HOP-92 NSCLC)?
A: > 100 µM

Q: What about the TGI (MCF7 breast) of the same compound?
A: > 100 µM

Q: And the TGI (SF-295 CNS)?
A: > 100 µM

Q: And the TGI (EKVX NSCLC)?
A: > 100 µM

Q: What about the TGI (DU-145 prostate) of the same compound?
A: > 100 µM

Q: What about the TGI (NCI-H522 lung) of the same compound?
A: > 100 µM

Q: And the TGI (UO-31 renal)?
A: > 100 µM

Q: And the TGI (SF-268 CNS)?
A: > 100 µM

Q: And the TGI (HL-60(TB) leukemia)?
A: > 100 µM

Q: What about the TGI (UACC-257 melanoma) of the same compound?
A: > 100 µM

Q: And the TGI (OVCAR-3 ovarian)?
A: > 100 µM

Q: And the TGI (NCI-H226 lung)?
A: > 100 µM

Q: And the TGI (786-0 renal)?
A: > 100 µM

Q: What about the TGI (IGROV1 ovarian) of the same compound?
A: > 100 µM

Q: What about the TGI (NCI-H460 lung) of the same compound?
A: > 100 µM

Q: And the TGI (T-47D breast)?
A: > 100 µM

Q: What about the TGI (UACC-62 melanoma) of the same compound?
A: > 100 µM

Q: And the TGI (CAKI-1 renal)?
A: 29.8 µM

Q: What about the TGI (U251 CNS) of the same compound?
A: > 100 µM

Q: What about the TGI (CCRF-CEM leukemia) of the same compound?
A: > 100 µM

Q: What about the TGI (PC-3 prostate) of the same compound?
A: > 100 µM

Q: And the TGI (K-562 leukemia)?
A: > 100 µM

Q: And the TGI (RPMI-8226 leukemia)?
A: > 100 µM

Q: And the TGI (HCT-116 colon)?
A: > 100 µM

Q: And the TGI (HOP-62 NSCLC)?
A: > 100 µM

Q: And the TGI (NCI/ADR-RES ovarian)?
A: > 100 µM

Q: What about the TGI (COLO 205 colon) of the same compound?
A: > 100 µM

Q: And the TGI (SNB-19 CNS)?
A: 27.6 µM

Q: What about the TGI (OVCAR-5 ovarian) of the same compound?
A: > 100 µM

Q: What about the TGI (SR leukemia) of the same compound?
A: > 100 µM

Q: And the TGI (MOLT-4 leukemia)?
A: > 100 µM

Q: What about the TGI (SN12C renal) of the same compound?
A: > 100 µM

Q: And the TGI (MDA-MB-231 breast)?
A: > 100 µM

Q: What about the TGI (KM12 colon) of the same compound?
A: > 100 µM

Q: What about the TGI (SF-539 CNS) of the same compound?
A: > 100 µM

Q: And the TGI (MDA-MB-435)?
A: > 100 µM

Q: And the TGI (HCT-15 colon)?
A: > 100 µM

Q: What about the TGI (TK-10 renal) of the same compound?
A: > 100 µM

Q: And the TGI (LOX IMVI melanoma)?
A: > 100 µM

Q: What about the TGI (RXF 393 renal) of the same compound?
A: > 100 µM

Q: What about the TGI (NCI-H23 lung) of the same compound?
A: > 100 µM

Q: And the TGI (SNB-75 CNS)?
A: > 100 µM

Q: And the TGI (SK-MEL-28 melanoma)?
A: > 100 µM

Q: What about the TGI (ACHN renal) of the same compound?
A: > 100 µM

Q: And the TGI (HS 578T breast)?
A: > 100 µM

Q: And the TGI (M14 melanoma)?
A: > 100 µM

Q: And the TGI (SK-MEL-2 melanoma)?
A: > 100 µM

Q: What about the TGI (OVCAR-4 ovarian) of the same compound?
A: > 100 µM

Q: What about the TGI (A549 NSCLC) of the same compound?
A: > 100 µM

Q: What about the TGI (OVCAR-8 ovarian) of the same compound?
A: > 100 µM

Q: What about the TGI (MDA-N) of the same compound?
A: > 100 µM

Q: For COc1cc(/C=N/Nc2nnc3c4ccccc4c4ncccc4c3n2)cc(OC)c1OC, which TGI (HT29 colon) is on record?
A: 5.4 µM

Q: And the TGI (SK-MEL-5 melanoma)?
A: > 10 µM

Q: And the TGI (SF-295 CNS)?
A: > 10 µM

Q: And the TGI (EKVX NSCLC)?
A: > 10 µM

Q: What about the TGI (DU-145 prostate) of the same compound?
A: > 10 µM

Q: What about the TGI (NCI-H522 lung) of the same compound?
A: 5.75 µM

Q: What about the TGI (UO-31 renal) of the same compound?
A: > 10 µM

Q: And the TGI (SF-268 CNS)?
A: > 10 µM

Q: And the TGI (HL-60(TB) leukemia)?
A: > 10 µM

Q: And the TGI (UACC-257 melanoma)?
A: 8.23 µM

Q: What about the TGI (OVCAR-3 ovarian) of the same compound?
A: > 10 µM

Q: What about the TGI (NCI-H226 lung) of the same compound?
A: 9.12 µM

Q: And the TGI (786-0 renal)?
A: > 10 µM

Q: What about the TGI (IGROV1 ovarian) of the same compound?
A: > 10 µM

Q: What about the TGI (NCI-H460 lung) of the same compound?
A: 5.68 µM

Q: What about the TGI (T-47D breast) of the same compound?
A: 4.11 µM

Q: What about the TGI (U251 CNS) of the same compound?
A: > 10 µM

Q: And the TGI (CCRF-CEM leukemia)?
A: > 10 µM

Q: And the TGI (K-562 leukemia)?
A: > 10 µM

Q: What about the TGI (SNB-19 CNS) of the same compound?
A: > 10 µM

Q: And the TGI (OVCAR-5 ovarian)?
A: > 10 µM

Q: What about the TGI (SR leukemia) of the same compound?
A: > 10 µM

Q: And the TGI (MOLT-4 leukemia)?
A: > 10 µM

Q: What about the TGI (BT-549 breast) of the same compound?
A: > 10 µM

Q: What about the TGI (KM12 colon) of the same compound?
A: > 10 µM

Q: What about the TGI (SF-539 CNS) of the same compound?
A: > 10 µM

Q: And the TGI (MDA-MB-435)?
A: > 10 µM

Q: And the TGI (TK-10 renal)?
A: > 10 µM

Q: What about the TGI (RXF 393 renal) of the same compound?
A: > 10 µM

Q: And the TGI (NCI-H23 lung)?
A: 8.25 µM

Q: What about the TGI (SNB-75 CNS) of the same compound?
A: > 10 µM

Q: And the TGI (ACHN renal)?
A: > 10 µM

Q: And the TGI (HS 578T breast)?
A: > 10 µM

Q: What about the TGI (M14 melanoma) of the same compound?
A: > 10 µM

Q: And the TGI (OVCAR-4 ovarian)?
A: > 10 µM

Q: And the TGI (A549 NSCLC)?
A: > 10 µM

Q: What about the TGI (OVCAR-8 ovarian) of the same compound?
A: 6.58 µM

Q: And the TGI (MDA-N)?
A: 8.09 µM
